Reference: patent US20220389515A1, “USE OF BIOMARKERS TO PREDICT CLINICAL SENSITIVITY TO 2-(4-CHLOROPHENYL)-N-((2-(2,6-DIOXOPIPERIDIN-3-YL)-1-OXOISOINDOLIN-5-YL)METHYL)-2,2-DIFLUOROACETAMIDE” (priority 2019, published 2022)

What was measured:
[1] = relative humidity increased from about 0% to about 90% RH; cited from earlier work
Ikaros = Ikaros (Homo sapiens, UniProt Q13422+Q96SW2); details: U937-Cas9; 18 hours
Description: Cells were treated with DMSO or Compound D in the presence of cycloheximide. FIGS. 8D and 8E show the immunoblot analysis of U937-Cas9 cells stably expressing HA-tagged GSPT1 and the indicated sgRNAs. Cells were treated with DMSO, Compound D (FIG. 8D) or pomalidomide (POM; FIG. 8E) at the indicated concentrations for 18 hours.
To understand whether the effect of mTOR activation on Compound D-induced GSPT1 degradation can be ascribed to an increased rate of GSPT1 protein synthesis and/or a decreased rate of GSPT1 degradation, the change of GSPT1 protein half-life in response to TSC1 or TSC2 loss in the presence or absence of Compound D was determined.

GSPT1 = target: T1, GSPT1 (Homo sapiens, UniProt P15170); assay: Immunoblot analysis of Compound D-induced GSPT1 degradation in AML cells; format: cell-based; details: U937 parental, TSC1-/- and TSC2-/- cells
T1 construct: endogenous in cells; host or cells: KG-1 (TMT proteomics); KG1, U937 / U937-Cas9, MOLM-13, OCI-AML2 (immunoblots)
T1 sequence (P15170 1-637 isoform P15170-3): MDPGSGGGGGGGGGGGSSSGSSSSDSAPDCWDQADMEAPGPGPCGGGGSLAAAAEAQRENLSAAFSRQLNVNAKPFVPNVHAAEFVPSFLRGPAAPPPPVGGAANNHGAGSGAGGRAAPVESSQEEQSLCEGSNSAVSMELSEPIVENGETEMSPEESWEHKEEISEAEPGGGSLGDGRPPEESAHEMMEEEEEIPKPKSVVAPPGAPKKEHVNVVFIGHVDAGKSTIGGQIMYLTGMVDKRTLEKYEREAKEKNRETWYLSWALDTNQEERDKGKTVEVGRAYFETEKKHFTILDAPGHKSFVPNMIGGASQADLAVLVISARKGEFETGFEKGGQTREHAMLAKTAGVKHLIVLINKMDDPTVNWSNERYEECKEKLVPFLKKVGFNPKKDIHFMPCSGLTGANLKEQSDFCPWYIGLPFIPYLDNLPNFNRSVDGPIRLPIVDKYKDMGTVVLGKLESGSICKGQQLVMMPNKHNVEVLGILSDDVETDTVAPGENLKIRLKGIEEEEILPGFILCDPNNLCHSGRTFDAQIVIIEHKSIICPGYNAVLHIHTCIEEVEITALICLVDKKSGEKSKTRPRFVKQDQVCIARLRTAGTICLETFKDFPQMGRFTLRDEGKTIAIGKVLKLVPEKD
T1 sequence (Q96SW2 whole entry partner): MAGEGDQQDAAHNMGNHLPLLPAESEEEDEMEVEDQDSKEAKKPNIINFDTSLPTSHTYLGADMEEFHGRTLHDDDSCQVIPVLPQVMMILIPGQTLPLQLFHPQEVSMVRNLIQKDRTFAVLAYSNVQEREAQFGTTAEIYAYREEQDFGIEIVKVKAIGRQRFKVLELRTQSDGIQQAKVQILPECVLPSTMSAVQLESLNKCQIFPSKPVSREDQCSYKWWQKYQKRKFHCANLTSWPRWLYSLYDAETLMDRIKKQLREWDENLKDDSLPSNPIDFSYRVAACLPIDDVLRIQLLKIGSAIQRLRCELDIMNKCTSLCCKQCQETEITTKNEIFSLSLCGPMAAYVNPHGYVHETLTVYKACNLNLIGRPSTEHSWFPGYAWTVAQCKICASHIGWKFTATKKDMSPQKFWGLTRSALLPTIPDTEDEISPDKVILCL
T1 sequence (Q16531 2-1140 partner): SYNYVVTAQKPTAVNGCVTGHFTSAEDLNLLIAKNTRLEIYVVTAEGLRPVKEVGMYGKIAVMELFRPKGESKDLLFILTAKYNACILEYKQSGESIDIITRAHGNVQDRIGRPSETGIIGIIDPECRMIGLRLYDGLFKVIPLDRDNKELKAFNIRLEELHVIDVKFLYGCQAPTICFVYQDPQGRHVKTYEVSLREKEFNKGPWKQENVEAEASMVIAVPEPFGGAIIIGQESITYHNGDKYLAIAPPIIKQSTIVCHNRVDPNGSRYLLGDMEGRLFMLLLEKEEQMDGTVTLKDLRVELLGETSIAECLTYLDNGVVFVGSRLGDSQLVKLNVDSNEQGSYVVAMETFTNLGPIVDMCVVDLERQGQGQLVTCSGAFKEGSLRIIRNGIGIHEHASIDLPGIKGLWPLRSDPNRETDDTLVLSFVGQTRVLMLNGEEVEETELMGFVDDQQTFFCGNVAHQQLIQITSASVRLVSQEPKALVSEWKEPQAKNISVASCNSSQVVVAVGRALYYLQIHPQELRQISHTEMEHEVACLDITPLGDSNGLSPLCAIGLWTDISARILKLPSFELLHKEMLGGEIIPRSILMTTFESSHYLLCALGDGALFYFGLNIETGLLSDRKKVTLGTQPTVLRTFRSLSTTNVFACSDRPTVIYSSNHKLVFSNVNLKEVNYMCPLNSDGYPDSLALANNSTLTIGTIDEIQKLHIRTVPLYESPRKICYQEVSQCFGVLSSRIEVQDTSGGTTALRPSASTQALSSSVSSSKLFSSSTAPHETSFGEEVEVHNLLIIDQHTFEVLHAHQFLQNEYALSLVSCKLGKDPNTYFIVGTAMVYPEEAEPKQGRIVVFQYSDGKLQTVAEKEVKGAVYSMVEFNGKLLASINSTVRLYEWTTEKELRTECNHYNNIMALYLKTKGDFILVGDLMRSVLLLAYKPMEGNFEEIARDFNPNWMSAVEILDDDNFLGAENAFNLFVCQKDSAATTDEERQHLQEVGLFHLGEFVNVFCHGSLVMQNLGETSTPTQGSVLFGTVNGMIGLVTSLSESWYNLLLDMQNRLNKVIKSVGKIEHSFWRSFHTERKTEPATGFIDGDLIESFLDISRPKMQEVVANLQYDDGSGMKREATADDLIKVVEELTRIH
Description: FIG. 2A illustrates the volcano plot of differentially abundant proteins in response to Compound D treatment relative to the DMSO control. KG1 cells were treated with DMSO or 100 nM Compound D for 4 hours and subjected to TMT proteomics analysis. The X-axis denotes the log 2-fold change of Compound D versus the DMSO control for each protein. P-values were corrected for multiple hypothesis testing using the Benjamini-Hoschberg method to arrive at an adjusted-P-value (adj-P, also known as a false discovery rate). The y-axis denotes the −log 10 (adj-P) values indicating statistical significance such that proteins lying above the dotted red line are statistically significant findings with adjusted P-values<0.05. FIG. 2B illustrates the immunoblot analysis of KG1 and U937 cells treated with DMSO or Compound D for 4 hours. Where indicated, cells were pretreated with Bortezomib or MLN4924 for 30 minutes. FIGS. 2C and 2D illustrate the immunoblot analysis (FIG. 2C) and cell proliferation (FIG. 2D) of U937-Cas9 parental cells or cells stably transduced with lentiviral vectors expressing a non-targeting sgRNA (sgNT-1), a sgRNA targeting a non-coding region (sgNC-8), or a sgRNA targeting CRBN(sgCRBN-8). Cells were treated with DMSO or Compound D at indicated concentrations. FIGS. 2E and 2F illustrate the immunoblot analysis (left panel) and cell proliferation (right panel) of MOLM-13 (FIG. 2E) and OCI-AML2 (FIG. 2F) parental and CRBN−/− cells. Cells were treated with DMSO or Compound D at indicated concentrations. Results shown in all figure panels are representative of three biological replicates. Data in FIGS. 2D, 2E (right panel), and 2F (right panel) are shown as mean±SD, n=3 technical replicates.
FIG. 3A illustrates FLAG-HA tagged cereblon wild-type (FLAG-HA-CRBN) or Y384A/W386A mutant (FLAG-HA-YWAA) produced in 293FT CRBN−/− cells was used to capture V5 tagged GSPT1 (GSPT1-V5) and V5 tagged IKZF1 (IKZF1-V5) transiently expressed in 293FT CRBN−/− cells. […] FIG. 3B illustrates the surface representation of GSPT1 in complex with cereblon, DDB1 and Compound D, with DDB1 shown in purple, cereblon in blue, and GSPT1 in orange. The position of Compound D is shown with a white arrow. FIG. 3C illustrates the Fo-Fc omit electron density (green mesh) for Compound D (yellow sticks) contoured at 3.06. FIG. 3D illustrates GSPT1's interaction with cereblon is mediated by a β-hairpin loop. Hydrogen bond interactions between cereblon and the GPST1 β-hairpin are shown as yellow dashes. FIG. 3E illustrates details of the binding interface between cereblon and GSPT1. Compound D is represented as yellow sticks. Predicted polar interactions between Compound D and cereblon are shown as yellow dashes. FIG. 3F illustrates the immunoblot analysis of U937 parental cells or cells stably expressing HA-GSPT1-G575N. Cells were treated with DMSO or Compound D at the indicated concentrations. FIGS. 3G and 311 illustrate the immunoblot analysis (left panel) and cell proliferation (right panel) of MOLM-13 (FIG. 3G) and OCI-AML2 (FIG. 311) parental cells and cells stably expressing HA tagged GSPT1-G575N. Cells were treated with DMSO or Compound D at indicated concentrations.
Like all other cereblon modulators, Compound D contains a glutarimide ring (FIG. 1A) that can bind cereblon and redirect it to target neosubstrates for degradation. Thus, the effect of Compound D on the global proteome in AML cell line KG-1 was assessed using tandem mass tag (TMT) quantitative mass spectrometry.
Specifically, U937 cells stably expressing Cas9 were infected with lentiviral vectors constitutively expressing RFP and non-targeting or non-coding sgRNA (sgNT) controls, or sgRNAs targeting TSC1 or TSC2. Infected cells were selected with 1 μg/ml puromycin. […]

Chain of Ikaros (Q96SW2 whole entry): as the sequence (Q96SW2 whole entry partner) above
Chain of Ikaros (Q13422 whole entry): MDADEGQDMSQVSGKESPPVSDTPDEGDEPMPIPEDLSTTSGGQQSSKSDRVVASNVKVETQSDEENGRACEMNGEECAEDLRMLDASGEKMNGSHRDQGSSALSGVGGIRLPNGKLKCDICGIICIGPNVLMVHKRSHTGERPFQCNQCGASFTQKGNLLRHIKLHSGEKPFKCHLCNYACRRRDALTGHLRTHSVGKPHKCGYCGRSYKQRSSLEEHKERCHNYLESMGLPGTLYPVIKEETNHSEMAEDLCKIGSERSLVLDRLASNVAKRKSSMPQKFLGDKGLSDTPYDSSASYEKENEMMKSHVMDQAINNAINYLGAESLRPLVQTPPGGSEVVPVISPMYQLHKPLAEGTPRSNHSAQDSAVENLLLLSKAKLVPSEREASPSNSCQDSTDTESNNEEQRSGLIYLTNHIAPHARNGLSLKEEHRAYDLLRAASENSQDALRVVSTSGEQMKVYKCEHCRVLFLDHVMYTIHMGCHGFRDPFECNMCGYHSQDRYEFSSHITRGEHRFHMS
Chain of Ikaros (Q16531 whole entry, further chain): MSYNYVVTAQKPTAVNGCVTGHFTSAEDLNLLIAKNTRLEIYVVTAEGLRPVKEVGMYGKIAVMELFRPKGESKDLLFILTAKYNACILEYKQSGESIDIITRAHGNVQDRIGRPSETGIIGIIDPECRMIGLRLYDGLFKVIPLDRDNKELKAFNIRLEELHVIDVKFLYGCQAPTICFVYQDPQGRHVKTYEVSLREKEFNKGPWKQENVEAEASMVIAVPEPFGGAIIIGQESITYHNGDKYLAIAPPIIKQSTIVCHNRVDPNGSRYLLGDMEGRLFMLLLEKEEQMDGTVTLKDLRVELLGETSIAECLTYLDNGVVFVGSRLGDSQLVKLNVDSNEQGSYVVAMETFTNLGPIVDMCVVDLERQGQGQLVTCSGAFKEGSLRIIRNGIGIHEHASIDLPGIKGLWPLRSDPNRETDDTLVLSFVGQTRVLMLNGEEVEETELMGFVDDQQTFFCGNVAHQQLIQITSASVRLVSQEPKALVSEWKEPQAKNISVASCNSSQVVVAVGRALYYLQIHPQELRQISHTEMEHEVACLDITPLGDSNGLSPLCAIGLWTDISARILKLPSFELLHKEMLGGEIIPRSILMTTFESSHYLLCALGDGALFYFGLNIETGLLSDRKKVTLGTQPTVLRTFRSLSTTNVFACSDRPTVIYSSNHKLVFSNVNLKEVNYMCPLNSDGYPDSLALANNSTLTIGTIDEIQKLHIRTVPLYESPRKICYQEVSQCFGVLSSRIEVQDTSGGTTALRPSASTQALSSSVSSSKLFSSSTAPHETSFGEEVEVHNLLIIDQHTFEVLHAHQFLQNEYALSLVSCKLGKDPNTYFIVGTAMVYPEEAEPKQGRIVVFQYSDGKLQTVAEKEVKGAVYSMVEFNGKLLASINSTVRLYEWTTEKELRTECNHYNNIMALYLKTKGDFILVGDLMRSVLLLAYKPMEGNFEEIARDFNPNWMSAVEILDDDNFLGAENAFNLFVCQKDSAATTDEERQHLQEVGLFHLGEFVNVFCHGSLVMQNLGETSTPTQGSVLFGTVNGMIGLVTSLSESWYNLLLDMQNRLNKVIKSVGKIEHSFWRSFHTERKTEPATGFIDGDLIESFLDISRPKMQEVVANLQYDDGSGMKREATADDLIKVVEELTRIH

SMILES | water uptake [1] | further results
O=C1CCC(N2Cc3cc(CNC(=O)C(F)(F)c4ccc(Cl)cc4)ccc3C2=O)C(=O)N1 (centres unmarked) [Form A, 2-(4-chlorophenyl)-N-((2-(2,6-dioxopiperidin-3-yl)-1-oxoisoindolin-5-yl)methyl)-2,2-difluoroacetamide] | about 1.2 % w/w | 
Nc1cccc2c1C(=O)N(C1CCC(=O)NC1=O)C2=O (centres unmarked) [pomalidomide] |  | degradation of Ikaros under TSC1 or TSC2 deficiency (Ikaros): did not affect the degradation of Ikaros by pomalidomide
C[C@@H]1C[C@@H]([C@H](O)CC2CC(=O)NC(=O)C2)C(=O)[C@@H](C)C1 [cycloheximide, reference compound] |  | protein level of GSPT1, cycloheximide treatment alone (GSPT1): did not show much effect on the protein level of GSPT1
O=C1CCC(N2Cc3cc(CNC(=O)C(F)(F)c4ccc(Cl)cc4)ccc3C2=O)C(=O)N1 (centres unmarked) [Form C, 2-(4-chlorophenyl)-N-((2-(2,6-dioxopiperidin-3-yl)-1-oxoisoindolin-5-yl)methyl)-2,2-difluoroacetamide] | about 0.6 % w/w | 
O=C1CCC(N2Cc3cc(CNC(=O)C(F)(F)c4ccc(Cl)cc4)ccc3C2=O)C(=O)N1 (centres unmarked) [Form B, 2-(4-chlorophenyl)-N-((2-(2,6-dioxopiperidin-3-yl)-1-oxoisoindolin-5-yl)methyl)-2,2-difluoroacetamide] | about 1.4 % w/w | 
